# What was measured:
# [1] = tested on: Botryotinia fuckeliana syn. Botrytis cinerea; assay: Botryotinia fuckeliana syn. Botrytis cinerea (gray mould), liquid culture growth inhibition; type: cell-based; details: PDB nutrient broth, 24° C., 72 hrs, photometric, vs untreated control
# Experimental: (§1) Conidia of the fungus from cryogenic storage were directly mixed into nutrient broth (PDB potato dextrose broth). A DMSO solution of the test compounds was placed into a microtiter plate (96-well format) and the nutrient broth containing the fungal spores was added to it. The test plates were incubated at 24° C. and the inhibition of growth was determined photometrically after 72 hrs.
# [2] = tested on: Glomerella lagenarium syn Colletotrichum lagenarium; assay: Glomerella lagenarium syn. Colletotrichum lagenarium (anthracnose), liquid culture growth inhibition; type: cell-based; details: Colletotrichum orbiculare, PDB nutrient broth, 24° C., 72 hrs, 620 nm, vs untreated control
# Experimental: as §1, with “hrs at 620 nm.” for “hrs.”
# Sclerotinia sclerotiorum = Sclerotinia sclerotiorum (cottony rot, white mold), liquid culture growth inhibition; type: cell-based; details: PDB nutrient broth, 24° C., 72 hrs, 620 nm, vs untreated control
# Experimental: as §1, with “Mycelial fragments” for “Conidia”, “fungus prepared” for “fungus”, “a fresh liquid culture” for “cryogenic storage”, “hrs at 620 nm.” for “hrs.”
# [3] = tested on: Botryotinia fuckeliana syn. Botrytis cinerea; assay: Botryotinia fuckeliana syn. Botrytis cinerea (grey mold on tomato), tomato plants; type: in vivo; details: tomato plants cv. Roter Gnom, inoculated two days after application, leaf area covered by disease 5-6 days after application
# Experimental: 4-week old tomato plants cv. Roter Gnom are treated sprayed in a spray chamber with the formulated test compound diluted in water. The test plants are inoculated by spraying them with a spore suspension two days after application. The inoculated test plants are incubated at 20° C. and 95% rh in a greenhouse and the percentage leaf area covered by disease is assessed when an appropriate level of disease appears on untreated check plants (5-6 days after application).
# Alternaria solani = Alternaria solani (early blight of tomato), tomato leaf disks, preventive; type: in vivo; details: foliar, 96 h, assessed 4 dpi, vs untreated control
# Experimental: Tomato leaf disks are placed on water agar in multiwell plates (24-well format) and sprayed with test solutions. After drying, the leaf disks are inoculated with a spore suspension of the fungus. After appropriate incubation the activity of a compound is assessed 4 dpi (days post inoculation) as preventive fungicidal activity.
# [4] = tested on: Phaeosphaeria nodorum syn. Septoria nodorum; assay: Phaeosphaeria nodorum syn. Septoria nodorum (glume blotch of wheat), wheat leaf segments, preventive; type: in vivo; details: Parastagonospora nodorum, foliar, 96 h, assessed 4 dpi, vs untreated control
# Experimental: Wheat leaf segments are placed on agar in multiwell plates (24-well format) and sprayed with test solutions. After drying, the leaf disks are inoculated with a spore suspension of the fungus. After appropriate incubation the activity of a compound is assessed 4 dpi (days after inoculation) as preventive fungicidal activity.
# The following compounds from Table T1 gave at least 80% control of Phaeosphaeria nodorum at 200 ppm when compared to untreated control under the same conditions, which sowed extensive disease development: • 1.1, 1.3, 1.7, 1.14, 1.39, 1.41, 1.86, 1.87, 1.92, 1.94, 1.95.
# [5] = tested on: Monographella nivalis syn. Microdochium nivale, Fusarium nivale; assay: Monographella nivalis syn. Microdochium nivale (snow mould, foot rot), liquid culture growth inhibition; type: cell-based; details: PDB nutrient broth, 24° C., 72 hrs, 620 nm, vs untreated control
# Experimental: as §1, with “hrs at 620 nm.” for “hrs.”
SMILES,inhibition of growth at 20 ppm [1],inhibition of growth at 20 ppm [2],inhibition of growth at 20 ppm (Sclerotinia sclerotiorum),pest or weed control at 200 ppm [3],pest or weed control at 200 ppm (Alternaria solani),pest or weed control at 200 ppm [4],inhibition of growth at 20 ppm [5]
"Cc1cccc(Oc2cnc(C)cc2C(=O)NCCc2ccc(Cl)cc2Cl)c1 [Compound 1.2, N-[2-(2,4-dichlorophenyl)ethyl]-2-methyl-5-(3-methylphenoxy) pyridine-4-carboxamide]",≥ 80%,≥ 80%,≥ 80%,–,–,–,–
"O=C(NCC(F)c1ccc(Cl)cc1Cl)c1cc(Br)ncc1Oc1cccc(C2CC2)c1 (stereo not drawn) [Compound 1.5, 2-bromo-5-(3-cyclopropyl-phenoxy)-N-[2-(2,4-dichlorophenyl)-2-fluoro-ethyl]pyridine-4-carboxamide]",≥ 80%,≥ 80%,≥ 80%,≥ 50%,–,–,–
"Cc1cncc(Oc2cccc(C3CC3)c2)c1C(=O)NCC(F)c1ccc(Cl)cc1Cl (stereo not drawn) [Compound 1.7, 3-(3-cyclopropyl-phenoxy)-N-[2-(2,4-dichlorophenyl)-2-fluoro-ethyl]-5-methyl-pyridine-4-carboxamide]",≥ 80%,≥ 80%,≥ 80%,≥ 50%,≥ 80%,≥ 80%,–
"O=C(NCC(F)c1ccc(Cl)cc1Cl)c1c(Br)cncc1Oc1cccc(C2CC2)c1 (stereo not drawn) [Compound 1.8, 3-bromo-5-(3-cyclopropyl-phenoxy)-N-[2-(2,4-dichlorophenyl)-2-fluoro-ethyl]pyridine-4-carboxamide]",≥ 80%,≥ 80%,≥ 80%,≥ 50%,–,–,–
"Cc1cc(C(=O)NCCc2ccc(Cl)cc2Cl)c(Oc2cccc(C3CC3)c2)cn1 [Compound 1.13, 5-(3-cyclopropyl-phenoxy)-N-[2-(2,4-dichlorophenyl)ethyl]-2-methyl-pyridine-4-carboxamide]",≥ 80%,≥ 80%,≥ 80%,≥ 50%,–,–,≥ 80%
"N#Cc1cc(C(=O)NCC(F)c2ccc(Cl)cc2Cl)c(Oc2cccc(C3CC3)c2)cn1 (stereo not drawn) [Compound 1.20, 2-cyano-5-(3-cyclopropyl-phenoxy)-N-[2-(2,4-dichlorophenyl) 2-fluoro-ethyl]pyridine-4-carboxamide]",≥ 80%,≥ 80%,≥ 80%,≥ 50%,≥ 80%,–,–
"Cc1cccc(Oc2cnc(Cl)cc2C(=O)NCCc2cccc(Cl)c2)c1 [Compound 1.46, 2-chloro-N-[2-(3-chlorophenyl)ethyl]-5-(3-methylphenoxy) pyridine-4-carboxamide]",–,≥ 80%,–,–,–,–,≥ 80%
"Cc1ccc(C(F)CNC(=O)c2cc(C)ncc2Oc2cccc(C3CC3)c2)c(Cl)c1 (stereo not drawn) [Compound 1.60, N-[2-(2-chloro-4-methyl-phenyl)-2-fluoro-ethyl]-5-(3-cyclopropyl-phenoxy)-2-methyl-pyridine-4-carboxamide]",≥ 80%,≥ 80%,–,≥ 50%,–,–,≥ 80%
"N#Cc1ccc(Oc2cnc(Cl)cc2C(=O)NCC(F)c2ccc(Cl)cc2Cl)cc1 (stereo not drawn) [Compound 1.63, 2-chloro-5-(4-cyanophenoxy)-N-[2-(2,4-dichlorophenyl)-2-fluoro-ethyl]pyridine-4-carboxamide]",–,≥ 80%,–,–,–,–,≥ 80%
"O=C(NCC(F)c1ccc(Cl)cc1Cl)c1cc(Cl)ncc1Oc1cccc(C2CC2)c1F (stereo not drawn) [Compound 1.70, 2-chloro-5-(3-cyclopropyl-2-fluoro-phenoxy)-N-[2-(2,4-dichlorophenyl)-2-fluoro-ethyl]pyridine-4-carboxamide]",≥ 80%,–,≥ 80%,≥ 50%,–,–,≥ 80%
"Cc1ccc(C(F)CNC(=O)c2cc(Cl)ncc2Oc2cccc(C3CC3)c2)c(C)c1 (stereo not drawn) [Compound 1.78, 2-chloro-5-(3-cyclopropyl-phenoxy)-N-[2-(2,4-dimethylphenyl)-2-fluoro-ethyl]pyridine-4-carboxamide]",≥ 80%,≥ 80%,–,–,–,–,≥ 80%
"CCc1cncc(Oc2cccc(C3CC3)c2)c1C(=O)NCC(F)c1ccc(Cl)cc1Cl (stereo not drawn) [Compound 1.79, 3-(3-cyclopropyl-phenoxy)-N-[2-(2,4-dichlorophenyl)-2-fluoro-ethyl]-5-ethyl-pyridine-4-carboxamide]",≥ 80%,≥ 80%,≥ 80%,≥ 50%,–,–,≥ 80%
"CCc1cc(C(=O)NCC(F)c2ccc(Cl)cc2Cl)c(Oc2cccc(C3CC3)c2)cn1 (stereo not drawn) [Compound 1.81, 5-(3-cyclopropyl-phenoxy)-N-[2-(2,4-dichlorophenyl)-2-fluoro-ethyl]-2-ethyl-pyridine-4-carboxamide]",≥ 80%,≥ 80%,≥ 80%,≥ 50%,–,–,≥ 80%
"O=C(NCC(F)c1ccc(Cl)cc1Cl)c1c(Oc2cccc(C3CC3)c2)cncc1Oc1cccc(C2CC2)c1 (stereo not drawn) [Compound 1.84, 3,5-bis(3-cyclopropyl-phenoxy)-N-[2-(2,4-dichlorophenyl)-2-fluoro-ethyl]pyridine-4-carboxamide]",≥ 80%,≥ 80%,–,≥ 50%,–,–,≥ 80%
"C#Cc1cc(C(=O)NCC(F)c2ccc(Cl)cc2Cl)c(Oc2cccc(C3CC3)c2)cn1 (stereo not drawn) [Compound 1.86, 5-(3-cyclopropyl-phenoxy)-N-[2-(2,4-dichlorophenyl)-2-fluoro-ethyl]-2-ethynyl-pyridine-4-carboxamide]",≥ 80%,≥ 80%,–,–,–,≥ 80%,≥ 80%
"C#CC(C)(C)Oc1cncc(Oc2cccc(C3CC3)c2)c1C(=O)NCC(F)c1ccc(Cl)cc1Cl (stereo not drawn) [Compound 1.92, 3-(3-cyclopropyl-phenoxy)-N-[2-(2,4-dichlorophenyl)-2-fluoro-ethyl]-5-(1,1-dimethylprop-2-ynoxy)pyridine-4-carboxamide]",≥ 80%,≥ 80%,≥ 80%,–,–,≥ 80%,≥ 80%
"O=C(NC[C@H](F)c1ccc(Cl)cc1Cl)c1c(Br)cncc1Oc1cccc(C2CC2)c1 [Compound 1.95, 3-bromo-5-(3-cyclopropyl-phenoxy)-N-[(2R)-2-(2,4-dichlorophenyl)-2-fluoro-ethyl]pyridine-4-carboxamide]",≥ 80%,≥ 80%,≥ 80%,–,≥ 80%,≥ 80%,≥ 80%
"O=C(NCC(F)c1ccc(Cl)cc1Cl)c1c(O)cncc1Oc1cccc(C2CC2)c1 (stereo not drawn) [Compound 1.96, 3-(3-cyclopropyl-phenoxy)-N-[2-(2,4-dichlorophenyl)-2-fluoro-ethyl]-5-hydroxy-pyridine-4-carboxamide]",≥ 80%,≥ 80%,≥ 80%,–,–,–,≥ 80%
"COc1cc(C(=O)NCC(F)c2ccc(Cl)cc2Cl)c(Oc2cccc(C3CC3)c2)cn1 (stereo not drawn) [Compound 1.98, 5-(3-cyclopropyl-phenoxy)-N-[2-(2,4-dichlorophenyl)-2-fluoro-ethyl]-2-methoxy-pyridine-4-carboxamide]",≥ 80%,≥ 80%,–,–,≥ 80%,–,–
